From ChEMBL document CHEMBL1201862, “PubChem BioAssay data set” (2004)
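Protocol summary: plate cells (96-well), add compound at 5 concentrations, incubate 48 h, interpolate endpoints linearly. Here, GI50 denotes the concentration required for 50% inhibition of growth.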 Activity calls are given as the source filed them. No stated cut-off is given here; in the data, active = GI50 up to about 1.1 µM and inactive = higher.

Legend:
Test in all cases: growth of human tumour cells (NCI), 48 h
MOLT-4 = tested on: MOLT-4
SK-MEL-5 = tested on: SK-MEL-5
BT-549 = tested on: BT-549
SNB-19 = tested on: SNB-19
NCI-H522 = tested on: NCI-H522
SF-295 = tested on: SF-295
DU-145 = tested on: DU-145
Malme-3M = tested on: Malme-3M
SN12C = tested on: SN12C
MDA-N = tested on: MDA-N
RPMI-8226 = tested on: RPMI-8226
EKVX = tested on: EKVX
CCRF-CEM = tested on: CCRF-CEM
RXF 393 = tested on: RXF 393
Hs-578T = tested on: Hs-578T
NCI/ADR-RES = tested on: NCI/ADR-RES
HOP-62 = tested on: HOP-62
A498 = tested on: A498
786-0 = tested on: 786-0

Measured: GI50

CCOC(=O)C(O)(NC(C)=O)C(F)(F)F (stereo unspecified)
inactive: MOLT-4 > 100 µM | SK-MEL-5 > 100 µM | BT-549 > 100 µM | SNB-19 > 100 µM | NCI-H522 > 100 µM | SF-295 > 100 µM | DU-145 > 100 µM | Malme-3M > 100 µM | SN12C > 100 µM | MDA-N > 100 µM | RPMI-8226 > 100 µM | EKVX > 100 µM | CCRF-CEM > 100 µM | RXF 393 > 100 µM | Hs-578T > 100 µM | NCI/ADR-RES > 100 µM | HOP-62 > 100 µM

CCn1nc(C)c2c1C(=O)NCC(=O)N2
inactive: SK-MEL-5 > 100 µM | BT-549 > 100 µM | SNB-19 > 100 µM | NCI-H522 > 100 µM | SF-295 > 100 µM | DU-145 > 100 µM | SN12C > 100 µM | MDA-N > 100 µM | EKVX > 100 µM | A498 > 100 µM | RXF 393 > 100 µM | Hs-578T > 100 µM

Cc1ccc(-c2n[nH]c(=O)n2N2C(=O)c3ccccc3C2=O)cc1
inactive: MOLT-4 > 100 µM | SK-MEL-5 > 100 µM | BT-549 > 100 µM | SNB-19 > 100 µM | NCI-H522 > 100 µM | SF-295 > 100 µM | DU-145 > 100 µM | Malme-3M > 100 µM | SN12C > 100 µM | MDA-N > 100 µM | 786-0 > 100 µM | RPMI-8226 > 100 µM | RXF 393 > 100 µM | Hs-578T > 100 µM | NCI/ADR-RES > 100 µM | HOP-62 > 100 µM

NC(CCCCCP(=O)(c1ccccc1)C1C=CC=CC1)C(=O)O (stereo unspecified)
inactive: MOLT-4 > 100 µM | SK-MEL-5 > 100 µM | BT-549 > 100 µM | SNB-19 > 100 µM | NCI-H522 > 100 µM | SF-295 > 100 µM | DU-145 > 100 µM | SN12C > 100 µM | MDA-N > 100 µM | RPMI-8226 > 100 µM | EKVX > 100 µM | CCRF-CEM > 100 µM | RXF 393 > 100 µM | Hs-578T > 100 µM | NCI/ADR-RES > 100 µM

COc1ccc(-c2c(C(C)=O)c(C)n(C3OC(CO)C(O)C(O)C3O)c(=S)c2C#N)cc1 (stereo unspecified)
inactive: MOLT-4 27.7 µM | SK-MEL-5 48.8 µM | BT-549 > 100 µM | SNB-19 19.5 µM | SF-295 72.9 µM | DU-145 > 100 µM | Malme-3M 70.5 µM | SN12C 50.6 µM | MDA-N 71.6 µM | RPMI-8226 83.6 µM | EKVX 55.1 µM | CCRF-CEM 38.3 µM | RXF 393 73.1 µM | Hs-578T 98.2 µM | NCI/ADR-RES 93.5 µM | HOP-62 > 100 µM

O=C(OCCN=C1c2ccccc2CCc2ccccc21)c1ccccc1
inactive: MOLT-4 15.2 µM | SK-MEL-5 > 100 µM | BT-549 > 100 µM | SNB-19 > 100 µM | SF-295 > 100 µM | DU-145 > 100 µM | Malme-3M > 100 µM | SN12C > 100 µM | MDA-N > 100 µM | 786-0 > 100 µM | RPMI-8226 13 µM | EKVX > 100 µM | CCRF-CEM > 100 µM | RXF 393 > 100 µM | Hs-578T > 100 µM | NCI/ADR-RES > 100 µM | HOP-62 > 100 µM

O=C(O)CC(O)(C(=O)O)C(O)C(=O)O (stereo unspecified)
inactive: MOLT-4 > 1000 µM | SK-MEL-5 247 µM | BT-549 > 1000 µM | SNB-19 > 1000 µM | NCI-H522 > 1000 µM | SF-295 > 1000 µM | DU-145 > 1000 µM | Malme-3M > 1000 µM | SN12C > 1000 µM | MDA-N 617 µM | 786-0 > 1000 µM | RPMI-8226 787 µM | EKVX > 1000 µM | CCRF-CEM > 1000 µM | RXF 393 > 1000 µM | Hs-578T 119 µM | NCI/ADR-RES > 1000 µM | HOP-62 > 1000 µM
